According to PubChem BioAssay AID248 (DTP/NCI, 2004):
Values joined by “and” are separate entries in the source; they are usually repeats but may differ in a detail not shown here. Equal entries are not always repeated. Inconclusive results and toxic doses are left out. No stated cut-off is given here; in the data, active means T/C of 150% or more; inactive means T/C below 125%.

Tested on: L1210 leukemia ip in BDF1 mice, survival T/C
Assay: NCI In Vivo Anticancer Drug Screen. Data for tumor model L1210 Leukemia (intraperitoneal) in B6D2F1 (BDF1) mice
Conditions: endpoint: mean survival time, higher = longer survival
Outline: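 In this screen, tumor-bearing mice given compound are compared to those given vehicle, and their survival values are reported as a treated-to-control quotient.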

[1] = dose: 100.0 mg/kg/injection, schedule: Q04DX002 (ip), vehicle: saline with Tween-80
[2] = dose: 100.0 mg/kg/injection, schedule: Q04DX003 (ip), vehicle: saline
[3] = dose: 200.0 mg/kg/injection, schedule: Q04DX002 (ip), vehicle: saline with Tween-80
[4] = dose: 200.0 mg/kg/injection, schedule: Q04DX003 (ip), vehicle: saline
[5] = dose: 400.0 mg/kg/injection, schedule: Q04DX003 (ip), vehicle: saline
[6] = dose: 100.0 mg/kg/injection, schedule: Q04DX003 (ip), vehicle: Klucel (hydroxypropylcellulose) (HPC)
[7] = dose: 200.0 mg/kg/injection, schedule: Q04DX003 (ip), vehicle: Klucel (hydroxypropylcellulose) (HPC)
[8] = dose: 400.0 mg/kg/injection, schedule: Q04DX003 (ip), vehicle: Klucel (hydroxypropylcellulose) (HPC)
[9] = dose: 100.0 mg/kg/injection, schedule: Q01DX001 (ip), vehicle: saline
[10] = dose: 200.0 mg/kg/injection, schedule: Q01DX001 (ip), vehicle: saline
[11] = dose: 100.0 mg/kg/injection, schedule: Q01DX009 (ip), vehicle: saline with Tween-80
[12] = dose: 100.0 mg/kg/injection, schedule: Q01DX009 (ip), vehicle: saline
[13] = dose: 200.0 mg/kg/injection, schedule: Q01DX009 (ip), vehicle: saline
[14] = dose: 200.0 mg/kg/injection, schedule: Q01DX001 (ip), vehicle: other
[15] = dose: 400.0 mg/kg/injection, schedule: Q01DX001 (ip), vehicle: other
[16] = dose: 100.0 mg/kg/injection, schedule: Q04DX003 (ip), vehicle: saline with Tween-80
[17] = dose: 200.0 mg/kg/injection, schedule: Q04DX003 (ip), vehicle: saline with Tween-80
[18] = dose: 400.0 mg/kg/injection, schedule: Q04DX003 (ip), vehicle: saline with Tween-80

Measured: T/C

Oc1ccccc1/C=N/Nc1ccc2ccccc2n1
inactive: dose: 75.0 mg/kg/injection, schedule: Q01DX001 (ip), vehicle: saline with Tween-80 93 % of control | dose: 150.0 mg/kg/injection, schedule: Q01DX001 (ip), vehicle: saline with Tween-80 90 % of control | dose: 300.0 mg/kg/injection, schedule: Q01DX001 (ip), vehicle: saline with Tween-80 93 % of control

Cc1cc(Cc2ccccc2)n[nH]1
inactive: dose: 100.0 mg/kg/injection, schedule: Q01DX001 (ip), vehicle: Klucel (hydroxypropylcellulose) (HPC) 107 % of control | dose: 200.0 mg/kg/injection, schedule: Q01DX001 (ip), vehicle: Klucel (hydroxypropylcellulose) (HPC) 102 % of control | dose: 400.0 mg/kg/injection, schedule: Q01DX001 (ip), vehicle: Klucel (hydroxypropylcellulose) (HPC) 108 % of control

O=C1/C(=C\c2ccccc2)N2CCC1CC2
inactive: [1] 87 % of control | [2] 103 % of control | [3] 91 % of control | [4] 108 % of control | dose: 400.0 mg/kg/injection, schedule: Q04DX002 (ip), vehicle: saline with Tween-80 87 % of control | [5] 103 % of control

O=C(Nc1ccc(Cl)c(Cl)c1)N(CCO)Cc1ccccc1
inactive: dose: 100.0 mg/kg/injection, schedule: Q01DX009 (ip), vehicle: Klucel (hydroxypropylcellulose) (HPC) 90 % of control | dose: 200.0 mg/kg/injection, schedule: Q01DX009 (ip), vehicle: Klucel (hydroxypropylcellulose) (HPC) 92 % of control | dose: 400.0 mg/kg/injection, schedule: Q01DX009 (ip), vehicle: Klucel (hydroxypropylcellulose) (HPC) 97 % of control

CC(=O)c1ccc(C(O)C(CO)NC(=O)C(Cl)Cl)cc1 (stereo not drawn)
inactive: [6] 100 % of control | [7] 103 % of control | [8] 103 % of control

O=C1OCC/C1=C/CCCCCC/C=C1\CCOC1=O
inactive: dose: 50.0 mg/kg/injection, schedule: Q01DX009 (ip), vehicle: DMSO 92 % of control | dose: 100.0 mg/kg/injection, schedule: Q01DX009 (ip), vehicle: DMSO 90 % of control | dose: 100.0 mg/kg/injection, schedule: Q04DX003 (ip), vehicle: DMSO 102 % of control | dose: 200.0 mg/kg/injection, schedule: Q01DX009 (ip), vehicle: DMSO 91 % of control | dose: 200.0 mg/kg/injection, schedule: Q04DX003 (ip), vehicle: DMSO 101 % of control | dose: 400.0 mg/kg/injection, schedule: Q04DX003 (ip), vehicle: DMSO 94 % of control

S=C(SNC1CCCCC1)SNC1CCCCC1
inactive: [9] 103 % of control | [6] 114 % of control | [10] 94 % of control | [7] 105 % of control | dose: 400.0 mg/kg/injection, schedule: Q01DX001 (ip), vehicle: saline 105 % of control | [8] 107 % of control

NC(CSS(=O)(=O)O)=NCCSc1ccccc1
inactive: dose: 12.5 mg/kg/injection, schedule: Q04DX002 (ip), vehicle: Klucel (hydroxypropylcellulose) (HPC) 95 % of control | dose: 25.0 mg/kg/injection, schedule: Q04DX002 (ip), vehicle: Klucel (hydroxypropylcellulose) (HPC) 106 % of control | dose: 50.0 mg/kg/injection, schedule: Q04DX002 (ip), vehicle: Klucel (hydroxypropylcellulose) (HPC) 106 % of control

O=[N+]([O-])c1ccc2[nH]c(=S)sc2c1
inactive: dose: 25.0 mg/kg/injection, schedule: Q01DX009 (ip), vehicle: Klucel (hydroxypropylcellulose) (HPC) 95 % of control | dose: 50.0 mg/kg/injection, schedule: Q01DX009 (ip), vehicle: Klucel (hydroxypropylcellulose) (HPC) 95 % of control

Clc1ccc2c(c1)C(Br)c1cc(Cl)cc(Cl)c1-2 (stereo not drawn)
inactive: dose: 25.0 mg/kg/injection, schedule: Q01DX009 (ip), vehicle: saline with Tween-80 102 % of control | dose: 25.0 mg/kg/injection, schedule: Q04DX003 (ip), vehicle: saline 102 % of control | dose: 50.0 mg/kg/injection, schedule: Q01DX009 (ip), vehicle: saline with Tween-80 94 % of control | dose: 50.0 mg/kg/injection, schedule: Q04DX003 (ip), vehicle: saline 102 % of control | dose: 100.0 mg/kg/injection, schedule: Q01DX001 (ip), vehicle: acetone 94 % of control | [11] 93 % of control | [2] 91 % of control

CC(=O)OC(C)CN(C)C (stereo not drawn)
inactive: [12] 103 % of control | [2] 103 % of control | [13] 100 % of control | [4] 105 % of control | dose: 400.0 mg/kg/injection, schedule: Q01DX009 (ip), vehicle: saline 100 % of control | [5] 93 % of control

Nc1ncnc2c(C(=O)O)c[nH]c12
inactive: dose: 100.0 mg/kg/injection, schedule: Q01DX001 (ip), vehicle: other 98 % of control | [14] 110 % of control | [15] 111 % of control

CC(=O)NC(C)C
inactive: [16] 93 % of control | [17] 100 % of control | [18] 96 % of control

CC(=O)CCCN1C(=O)c2ccccc2C1=O
inactive: [11] 106 % of control | [16] 101 % of control | dose: 200.0 mg/kg/injection, schedule: Q01DX009 (ip), vehicle: saline with Tween-80 96 % of control | [17] 91 % of control | dose: 400.0 mg/kg/injection, schedule: Q01DX009 (ip), vehicle: saline with Tween-80 93 % of control | [18] 102 % of control

CC(Br)c1ccc(S(=O)(=O)F)cc1 (stereo not drawn)
inactive: [1] 104 % of control | [3] 101 % of control

CCNC(=O)Nc1ccccc1
inactive: dose: 100.0 mg/kg/injection, schedule: Q04DX002 (ip), vehicle: Klucel (hydroxypropylcellulose) (HPC) 93 % of control | dose: 200.0 mg/kg/injection, schedule: Q04DX002 (ip), vehicle: Klucel (hydroxypropylcellulose) (HPC) 96 % of control

c1ccc(-c2c[nH]c(-c3ccccc3)c2)cc1
inactive: [6] 124 % of control | dose: 200.0 mg/kg/injection, schedule: Q01DX001 (ip), vehicle: steriod suspending solution 103 % of control | [7] 100 % of control | dose: 400.0 mg/kg/injection, schedule: Q01DX001 (ip), vehicle: steriod suspending solution 103 % of control | [8] 94 % of control

CN(C)c1ccc(/C=N\NC(=O)c2ccco2)cc1
inactive: [14] 93 % of control | [15] 90 % of control

c1ccc(CCN2CCC(CCc3c[nH]c4ccccc34)CC2)cc1
inactive: dose: 50.0 mg/kg/injection, schedule: Q01DX001 (ip), vehicle: saline 96 % of control | [9] 117 % of control

CNC(=O)O/N=C(/C)c1ccc(Cl)cc1
inactive: dose: 100.0 mg/kg/injection, schedule: Q01DX001 (ip), vehicle: carboxymethylcellulose (CMC) 93 % of control | dose: 200.0 mg/kg/injection, schedule: Q01DX001 (ip), vehicle: carboxymethylcellulose (CMC) 101 % of control | dose: 400.0 mg/kg/injection, schedule: Q01DX001 (ip), vehicle: carboxymethylcellulose (CMC) 101 % of control

COC(=O)C(=O)CC(=O)c1cccc(Cl)c1
inactive: dose: 10.0 mg/kg/injection, schedule: Q04DX002 (ip), vehicle: Klucel (hydroxypropylcellulose) (HPC) 92 % of control | dose: 20.0 mg/kg/injection, schedule: Q04DX002 (ip), vehicle: Klucel (hydroxypropylcellulose) (HPC) 96 % of control | dose: 40.0 mg/kg/injection, schedule: Q04DX002 (ip), vehicle: Klucel (hydroxypropylcellulose) (HPC) 105 % of control

O=c1[nH]cnc2ncccc12
inactive: [9] 106 % of control | [10] 104 % of control

COC1OCC(OS(C)(=O)=O)C(OS(C)(=O)=O)C1OS(C)(=O)=O (stereo not drawn)
inactive: [16] 97 % of control and 96 % of control | [17] 97 % of control and 98 % of control | [18] 100 % of control and 98 % of control

CC(=O)Oc1c(F)c(F)c(F)c(F)c1F
inactive: dose: 25.0 mg/kg/injection, schedule: Q04DX002 (ip), vehicle: saline with Tween-80 87 % of control | dose: 50.0 mg/kg/injection, schedule: Q04DX002 (ip), vehicle: saline with Tween-80 90 % of control | [1] 93 % of control

O=C(NC1CC1(c1ccccc1)c1ccccc1)NC1CC1(c1ccccc1)c1ccccc1 (stereo not drawn)
inactive: dose: 300.0 mg/kg/injection, schedule: Q01DX001 (ip), vehicle: other 86 % of control

CC(O)Cn1cnc2c1c(=O)n(C)c(=O)n2C (stereo not drawn)
inactive: [12] 93 % of control | [2] 95 % of control | [13] 95 % of control | [4] 95 % of control | [5] 94 % of control
